# Where two headings read alike, the source gives them in different places.
# Tests used:
# [1] = system: patient with Leigh Syndrome; assay: Treatment of a Leigh Syndrome patient (Example 3), observed function; format: in vivo, human; conditions: Example 3 patient
# Protocol: A patient with Leigh Syndrome was treated with alpha-tocotrienol quinone. Informed consent was obtained from the child's parents in accordance with federal regulations and institutional protocol. A mutation was identified in the SURF-1 gene of the patient.
# At the start of treatment, the patient was unable to control their extremities. […] The patient also gained weight.
# [2] = Blood-brain barrier crossing, homogenized brains of mice dosed IP; format: in vivo; conditions: C57/BL mice dosed IP at 25 mg/kg, FIG. 5
# [3] = Treatment of a Leigh Syndrome patient with SURF-1 mutations (Example 2): drug levels in plasma and CSF; format: in vivo, human; conditions: Example 2 patient
# Protocol: (§1) The patient's weight was approximately 10 kg. Alpha-tocotrienol quinone was administered to the patient via gastrointestinal feeding tube; the drug was mixed with sesame oil for administration. The following dosing of alpha-tocotrienol quinone was used:
# Full pharmacokinetic sampling (post dose, 3 h, 6 h, 10 h, 24 h, 36 h, 48 h, and 72 h) was done after administration of the initial dose. 0.5 mL of blood were taken at each time point, for a total of four mL of blood drawn at 72 h. Bio-analysis and pharmacokinetic calculations were conducted.
# The minimal effective dose of alpha-tocotrienol quinone was determined. The concentration 24 hours after dosing (C24h) was expected to be 220.5 ng/ml (0.504), while the minimal effective dose was expected to be around 150 mg. Thus, the daily dosage was escalated stepwise.
# The concentration of alpha tocotrienol quinone was monitored in the patient. […] Alpha tocotrienol quinone was present at 1.3 ng/ml in CSF.
# [4] = Animal study of alpha-tocotrienol quinone administration, pharmacokinetics in rats; conditions: rat, in vivo, 10 mg/kg
# Protocol: (§2) The particular dosage appropriate for a specific patient is determined by dose titration. […] There is less than dose-proportionality since for an increase in doses of 2.4:6:10:20 there is only an increase in AUCs of 1.5:2.8:4.0:6.7. This lack of dose-proportionality may be due to decreased absorption since there is no change in t1/2 over dose range. Alpha-tocotrienol quinone tested in rats was safe when given acutely up to 2000 mg/kg.
# [5] = rat, in vivo
# Protocol: as §2
# The starting dose can be estimated based on the United States Food and Drug Administration guidelines titled “Estimating the Maximum Safe Starting Dose in Initial Clinical Trials for Therapeutics in Adult Healthy Volunteers” (July 2005) as well as the International Conference on Harmonisation of Technical Requirements for Registration of Pharmaceuticals for Human Use (ICH) guidelines titled “Guidance on Non-clinical Safety Studies for the Conduct of Human Clinical Trials and Marketing Authorization for Pharmaceuticals” (July 2008). Per ICH guidelines, predicted exposures from the starting dose should not exceed 1/50th the NOAEL (No-Adverse-Observed-Effect-Level) in the more sensitive species on a mg/m^2 basis. Following a single oral dose of alpha-tocotrienol quinone, the NOAEL was established to be 500 mg/kg for the female rat, i.e. 3,000 mg/m2. This dosage would be equivalent to 81 mg/kg in an adult human. […]
# [6] = Animal study of alpha-tocotrienol quinone administration, pharmacokinetics in fasted dogs; conditions: dog, in vivo, po, 10 mg/kg
# Protocol: as §2
# [7] = system: SURF-1 fibroblasts; assay: Surfeit-1 (SURF1) cell line assay: rescue of BSO-stressed patient fibroblasts, Calcein AM viability; format: cell-based; conditions: Homo sapiens, Fibroblast, BSO-stressed fibroblasts of the Example 2 patient
# Protocol: Alpha-Tocotrienol quinone, its redox-silent version (the bis-Boc protected corresponding hydroquinone), and solvent controls were tested for their ability to rescue cells from SURF-1 fibroblasts of the patient diagnosed with SURF-1 described in Example 2, when the cells were stressed by addition of L-buthionine-(S,R)-sulfoximine (BSO), as described in Jauslin et al., Hum. Mol. Genet. 11(24):3055 (2002), Jauslin et al., FASEB J. 17:1972-4 (2003), and International Patent Application WO 2004/003565. EC50 concentrations of test compound and its redox-silent version were determined and compared. The following compound, 2-((6E,10E)-3-hydroxy-3,7,11,15-tetramethylhexadeca-6,10,14-trienyl)-3,5,6-trimethyl-bis(t-butyloxycarbonyl)benzene-1,4-diol, the bis-Boc protected hydroquinone form of alpha-tocotrienol quinone, was used as the “redox-silent” alpha tocotrienol quinone, or αTTQ-RS.
# MEM (a medium enriched in amino acids and vitamins, catalog no. 1-31F24-I) and Medium 199 (M199, catalog no. 1-21F22-I) with Earle's Balanced Salts, without phenol red, were purchased from Bioconcept. Fetal Calf Serum was obtained from PAA Laboratories. Basic fibroblast growth factor and epidermal growth factor were purchased from PeproTech. Penicillin-streptomycin-glutamine mix, L-buthionine (S,R)-sulfoximine, and insulin from bovine pancreas were purchased from Sigma. […]
# [8] = system: patient with Leigh Syndrome; assay: Treatment of a Leigh Syndrome patient with SURF-1 mutations (Example 2): lactate, MRI, adverse events; format: in vivo, human; conditions: Example 2 patient
# Protocol: A patient with Leigh Syndrome was treated with alpha-tocotrienol quinone. Informed consent was obtained from the child's parents in accordance with federal regulations and institutional protocol. Two mutations were identified in the SURF-1 gene of the patient.
# as §1
# The patient returned for a review of safety and efficacy evaluation, including CNS lactate/pyruvate ratios as determined by non-invasive means (MRI/MRS) and ECHO. The following efficacy parameters were evaluated: PK parameters; magnetic resonance spectroscopy of central nervous system; echocardiography and electrocardiogram; and plasma and urine analytes.
# Lactic acid measurements were as follows:
# Magnetic resonance imaging of the patient was performed to assess the effect of treatment. […] These findings are consistent with Leigh Syndrome encephalopathies.
# Close monitoring of the patient during the study was performed, to detect any adverse events. In addition, the investigator had authority to stop the study if the safety of the subject was at risk.
# [9] = after treatment compared with pre-treatment MRI
smiles,measurement,setting,value
"CC(C)=CCC/C(C)=C/CC/C(C)=C/CCC(C)(O)CCC1=C(C)C(=O)C(C)=C(C)C1=O (stereo not drawn) [alpha-tocotrienol quinone, Alpha-tocotrienol quinone]",control of extremities,"[1]; after 22 days of treatment, unable to control extremities at start",able to move their arm in the “high-five” gesture
same,motor function,[1]; after 379 days of treatment,able to sit upright
same,weight gained,[1]; after 379 days of treatment,15 pounds
same,gastrointestinal function,[1]; under treatment,greatly improved
same,sleep,[1]; under treatment,improved
same,crosses the blood-brain barrier,[2],crosses the blood-brain barrier
same,"concentration 24 hours after dosing (C24h), expected",[3]; expectation before dose escalation,220.5 ng/mL
same,concentration at 98 day of treatment,"[3]; human, cerebrospinal fluid, other: via gastrointestinal feeding tube, 98th day of treatment, FIG. 9",1.3 ng/mL
same,bioavailability,[4],~90%
same,dose at which safe when given acutely,[5],up to 2000 mg/kg
same,NOAEL on mg/m2 basis,[5]; po,"3,000 mg/m2"
same,bioavailability,[6],~16%
same,EC50,"[7]; FIG. 1 experiment run beside Coenzyme Q10, read-out: EC50, viability of cells with a SURF-1 mutation (FIG. 1)",27 nM
same,EC50,"[7]; FIG. 2 experiment run beside αTTQ-RS, read-out: EC50, viability of cells with a SURF-1 mutation (FIG. 2)",21 nM
same,adverse events,"[8]; close monitoring during the study, FIG. 7",No adverse events were observed
same,plasma lactate level after treatment,"[8]; 3.6 mM approximately 4 months prior to treatment, normal range 1.0 to 1.4 mM",1.1 mM
same,CSF lactate level after treatment,[8]; 46.5 mg/dL about 2 years pre-treatment,24.0 mg/dL
same,"MRI: T2 hyperintensities of midbrain, pons, medulla and cerebellum",[8]; [9],interval improvement
same,MRI: amount of lesions,[8]; [9],overall decrease
same,reduction of CSF lactate,[8]; after treatment vs about 2 years pre-treatment,48.4%
same,reduction of plasma lactate,[8]; after treatment vs approximately 4 months prior,69.4%
same,decrease in brain lactate,[8]; two days prior to treatment to approximately 98 days after starting,20-30%

# Reference: patent publication US20170246124A1, “TREATMENT OF LEIGH SYNDROME AND LEIGH-LIKE SYNDROME WITH TOCOTRIENOL QUINONES” (BioElectron Technology Corporation, priority 2009, published 2017)
